From PMC8186431, “Synthesis and biological evaluation of thiazolidinedione derivatives with high ligand efficiency to P. aeruginosa PhzS” (Journal of Enzyme Inhibition and Medicinal Chemistry, 2021)
Entries after “also recorded” stand apart in the source; their conditions may differ.

Tests used:
[1] = target: T1, PhzS from P. aeruginosa (PaPhzS) (Pseudomonas aeruginosa, UniProt Q9HWG9); assay: Thermal shift assay (TSA) screening of thiazolidinedione derivatives; type: binding; details: different concentrations (3.12–100.0 µM)
T1 construct: implied by pET28a and the HisTrap purification; made in house; host or cells: E. coli Rosetta (DE3)
T1 sequence (Q9HWG9 whole entry): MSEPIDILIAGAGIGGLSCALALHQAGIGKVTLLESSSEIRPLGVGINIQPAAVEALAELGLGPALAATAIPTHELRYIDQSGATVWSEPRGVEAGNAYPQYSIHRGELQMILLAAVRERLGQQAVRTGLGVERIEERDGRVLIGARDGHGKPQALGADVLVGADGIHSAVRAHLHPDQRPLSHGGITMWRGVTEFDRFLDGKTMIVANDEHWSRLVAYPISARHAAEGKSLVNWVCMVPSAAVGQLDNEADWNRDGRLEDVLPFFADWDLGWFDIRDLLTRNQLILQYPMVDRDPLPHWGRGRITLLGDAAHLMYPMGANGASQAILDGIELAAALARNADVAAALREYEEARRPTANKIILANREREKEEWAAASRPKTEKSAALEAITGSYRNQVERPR
Experimental: TSA assays were performed on Applied Biosystems 7500 RT-PCR (Applied Biosystems, Foster City, CA USA), fitted with custom filter sets. All assays were carried out in triplicate on a 96-well PCR plate (PCR plates 96 well BioRad®), manually sealed with transparent capping strips (Flatcap strips BioRad®). The plates were centrifuged for 2 min, 2000 rpm, at 25 °C and then the fluorescence of SYPRO^TM orange (S6650) was monitored (excitation wavelength= 492 nm and emission wavelength= 610 nm), while the plate was heated from 25 to 85 °C, in increments of 1 °C per minute.
The TSA conditions employed in this work were previously optimised. Briefly, 5 µl of PaPhzS (5 µM final concentration), 1 µl of SYPRO^TM orange (5X), 13 µl of assay buffer (50 mM potassium phosphate, 300 mM NaCl, pH 8), and 1 µl DMSO (5% v/v), as a negative control, or the putative inhibitor (diluted in DMSO) were added to each well. All experiments were carried out in triplicate
Raw fluorescence data were recorded within the Applied Biosystems 7500 Software v2.0, and then exported to NAMI[52] for Tm calculation by the first-derivative method.

[2] = target: T2, PaPhzS (Pseudomonas aeruginosa, UniProt Q9HWG9); assay: Compounds' affinity calculation by TSA (fraction of unfolded protein, DSFit software); type: binding, P. aeruginosa; details: for BEI (DSFit software): BEI: (pKd/MW)×1000, from DSFit Kd; for Kd: Kd (DSFit software), TSA, fraction of unfolded PaPhzS at 43 °C, PaPhzS 5 µM, ligand 3.12 to 200 µM; for LE (DSFit software): LE: 1.4*pKd/HA, from DSFit Kd
T2 construct: implied by pET28a and the HisTrap purification; made in house; host or cells: E. coli Rosetta (DE3)
T2 sequence (Q9HWG9 whole entry): as above
Experimental: The effect of ligand’s concentration (ranging from 3.12 to 200 µM) over the PaPhzS Tm (5 µM final concentration) was evaluated using the same parameters described in section (2.2.2). […] The ΔCp value (0.69) required for this calculation was predicted by hydrophobic surface area-based method available on http://www.ibi.vu.nl/programs/bicepwww/. Briefly, the heat capacity (C) was calculated at two temperatures: 25 °C (before PhzS unfolding [T1]) and 50 °C (after PzhS unfolding [T2]) using Equation (2). C = 332.66 ± 18.9 X (273.15 − T) + 52089 ± 1353 (2) [drawing 2] where T stands for temperature in Kelvin. Therefore T1 = 298.15 K, T2 = 323.15 K.
Bai and co-workers devised an elegant workaround that limitation, which relies on the percentage of unfolded protein at a fixed temperature. […] According to Bai and co-workers (2019) Kd values close to the protein concentration (5 µM) or lower should be taken with scepticism. […] As these Kd values were obtained at a temperature higher than the physiologic one, we decided to employ an orthogonal assay to evaluate the compounds’ affinity. In order to achieve this goal, PaPhzS was labelled with FITC and the effects of different concentration of each inhibitor on the covalently modified PaPhzS was monitored at 25 °C (Figure 5).

[3] = target: T3, PaPhzS-FITC (Pseudomonas aeruginosa, UniProt Q9HWG9); assay: Affinity to covalently modified PaPhzS (FITC fluorescence); type: binding, P. aeruginosa; details: for BEI (FITC): BEI: (pKd/MW)×1000, from PaPhzS-FITC Kd; for LE (FITC): LE: 1.4*pKd/HA, from PaPhzS-FITC Kd; for affinity to PaPhzS, in words: PaPhzS-FITC assay
T3 construct: implied by pET28a and the HisTrap purification); FITC (chemical covalent label, not a peptide; made in house; host or cells: E. coli Rosetta (DE3)
T3 sequence (Q9HWG9 whole entry): as above
Experimental: PaPhzS (2 mg/mL) was incubated with fluorescein-5-isothiocyanate (FITC) dye (6 mg/mL) containing 50 mM HEPES (pH 8.0) for 2 h, at 25 °C. Then, the solution was loaded on a Hi-Trap HP desalting column (GE Healthcare), previously equilibrated with 50 mM HEPES buffer (pH 8) and 2 CV of the same buffer were injected. The absorbance of the collected fractions was monitored at 280 nm and 490 nm and those with a molar ratio ranging from 0.3 and 1.0[55] were employed for the Kd calculation experiments, as follows: The fluorescence of PaPhzS-FITC, at 25 °C, using in a real-time thermocycler (AppliedBiosystem7500) equipped with the FAN filter (excitation 498 nm and emission 530 nm wavelengths) for 10 min in the presence of different concentrations of each compound (3.12–100.0 µM). The Raw fluorescence data, recorded within the Applied Biosystems 7500 Software v2.0, was employed for non-linear regression analysis (three parameters) (Equation 1), as available in GraphPad Prism 8.0 software (GraphPadV® Software, San Diego, CA, USA, www.graphpad.com). All experiments were carried out in triplicate using 96-well PCR plate (PCR plates 96 well BioRad®), manually sealed with transparent capping strips (Flatcap strips BioRad®).

[4] = target: PhzS from P. aeruginosa; design: method as in PMID 32772556; details: Kd value calculated by microscale thermophoresis; cited from earlier work

SMILES | melting point | concentration-response profile of ΔTm [1] | BEI (DSFit software) [2] | Kd [2] | LE (DSFit software) [2] | Kd [3] | affinity to PaPhzS, in words [3] | also measured
O=C1S/C(=C\c2c(Cl)cccc2Cl)C(=O)N1Cc1cccc(Cl)c1 [Compound 3, (Z)-3–(3-chlorobenzyl)-5–(2,6-dichlorobenzylidene)thiazolidine-2,4-dione] | 110 to 111 °C | – | – | – | – | – | – | –
O=C1NC(=O)C(=Cc2cc(Cl)cc(Br)c2O)S1 [Compound 15] | – | clear concentration-response profile | 13.3 | 37.2 µM | 0.36 | 166 ± 0.5 µM | low affinity; also recorded: reduced affinity | BEI (FITC) [3]: 11.4; LE (FITC) [3]: 0.31
COCn1cc(/C=C2\SC(=O)NC2=O)c2ccccc21 [Compound 33] | – | clear concentration-response profile | 14.9 | 50 µM | 0.30 | 84.2 ± 0.2 µM | low affinity | BEI (FITC) [3]: 14.1; LE (FITC) [3]: 0.28
O=C1NC(=O)/C(=C/C=C/c2ccccc2[N+](=O)[O-])S1 [Compound 38, (Z)-5-((E)-3–(2-nitrophenyl)allylidene)thiazolidine-2,4-dione] | 119 to 120 °C | small variation in ΔTm | – | – | – | – | – | –
Cc1ccc(/C=C2\SC(=O)NC2=O)cc1Br | 196 to 197 °C | – | – | – | – | – | – | –
O=C1S/C(=C\c2cc(Cl)ccc2O)C(=O)N1Cc1cccc(Cl)c1 | 201 to 202 °C | – | – | – | – | – | – | –
COc1ccc(C(=O)CN2C(=O)S/C(=C\c3ccc(C)cc3)C2=O)cc1 | 174 to 176 °C | – | – | – | – | – | – | –
O=C1NC(=O)/C(=C\c2ccc(OCc3nc4ccccc4c(=O)n3-c3ccccc3)cc2)S1 [A, (E)-5–(4-((4-oxo-3-phenyl-3,4-dihydroquinazolin-2-yl)methoxy)benzylidene)thiazolidine-2,4-dione, reference compound] | – | – | 11.0 | 9.3 µM | 0.21 | – | – | Kd [4]: 18 µM
O=C1NC(=O)/C(=C/c2cncc3ccccc23)S1 | 118 to 119.5 °C | – | – | – | – | – | – | –
O=C1NC(=O)/C(=C/c2c(O)ccc3ccccc23)S1 | 194 to 195 °C | – | – | – | – | – | – | –
COc1cc(OC)c(OC)cc1/C=C1\SC(=O)NC1=O [Compound 28, (Z-5–(2,4,5-trimethoxybenzylidene)thiazolidine-2,4-dione)] | 158 to 160 °C | clear concentration-response profile | – | – | – | – | – | –
O=C1NC(=O)/C(=C/c2cc(Cl)ccc2O)S1 [Compound 16] | – | clear concentration-response profile | 21.0 | 4.2 µM | 0.47 | 6.18 ± 0.2 µM | low micromolar ligands | BEI (FITC) [3]: 20.42; BEI (FITC) ([3]; listed as Mol 16): 20.4; LE (FITC) ([3]; listed as Mol 16): 0.45
COc1ccc(/C=C2\SC(=O)NC2=O)c(Br)c1O [Compound 20, (Z) 5–(2-bromo-3-hydroxy-4-methoxybenzylidene)thiazolidine-2,4-dione] | 245 °C | clear concentration-response profile | 15.0 | 10.5 µM | 0.38 | 3.3 ± 0.3 µM | low micromolar ligands | BEI (FITC) ([3]; listed as Mol 20): 16.6; LE (FITC) ([3]; listed as Mol 20): 0.42
